Entries after “also recorded” stand apart in the source; their conditions may differ.
Experiments:
[1] = tested on: mouse CD8 T cells; test: Isolated CD8 T cells stimulated with anti-CD3, TNF-α, IFN-γ and granzyme B expression; type: cell-based; details: anti-CD3 10 μg/ml
[2] = tested on: C57BL/6 mice transplanted with Bm12 left lung; test: Allogeneic orthotopic left lung transplantation, Bm12 into C57BL/6; type: in vivo, mouse
Description: The effect of oATP treatment in a model of allogeneic orthotropic left lung transplantation (Bm12 into C57BL/6) was assessed. Graft rejection and tissue fibrosis occurs early after transplantation and it is complete by day 30. […] CT scan was also performed in untreated or oATP-treated mice. Radiological analysis confirmed the preserved alveolar space and thus the functional integrity of oATP-treated compared to untreated mice (FIG. 8). oATP treatment is a rescue therapy for lung rejection. In a complementary experiment, oATP was tested as a rescue therapy for lung rejection. Bm12 left lung was transplanted into C57BL/6 mice and oATP treatment was started at day 10 after transplantation (when graft infiltration and rejection are evident) and mice follow for 30 days.

[3] = tested on: ABM CD4+ TCR-Tg T cells; test: Alloantigen-specific ABM CD4+ TCR-Tg T cells, bm12 hearts into C57BL/6 Rag-/- mice; type: in vivo, mouse
Source text: To address whether the inhibition of the effector T-cell compartment is related to reduced priming and expansion of alloreactive T cells or to their increased apoptosis, alloreactive-specific T cells were tracked in a transgenic model of cardiac transplantation. Bm12 hearts were transplanted into C57BL/6 Rag−/− mice, and 3×10^6 ABM CD4+ TCR-Tg T cells (specific for bm12 major histocompatibility complex class II antigens) were subsequently adoptively transferred into cardiac transplant recipients.

[4] = tested on: C57BL/6 mice transplanted with BALB/c hearts; type: in vivo, mouse; parameters: long-term cardiac transplant survival (>100 days), share of recipients: dose or concentration left out as unconfirmed; details: oATP i.p. daily for 14 days
Description: The effect of P2X7R targeting in preventing cardiac transplant rejection was tested using the P2X7R inhibitor oATP.
The effect of P2X7R targeting in preventing cardiac transplant rejection was tested by using the P2X7R inhibitor oATP.

[5] = tested on: OT1 splenocytes (CD8 T cells); test: OT1 splenocytes stimulated with OVA peptide, proliferation; type: cell-based, mouse; details: oATP 100 μM
Description: FIG. 16A depicts a graph of CD8 activation levels. To better assess the response of CD8 T cells, splenocytes isolated from OT1 mice were stimulated with OVA peptide with and without (positive control) oATP (100 μM) and T cell proliferation determined. […] FIG. 16C depicts photomicroscopy images and a graph of cell growth and survival. Freshly isolated human peripheral blood mononuclear cells (PBMCs, 4×10^5/ml) were applied onto pre-seeded A549 cells (at ˜20% confluency). Cells were cultured in RPMI medium supplemented with interferon gamma (IFNγ) with or without oATP for 7 days. […]
Outcome Measures—In vivo assessment of transplanted lung function was performed by thoracic CT scan imaging and measuring peak airway pressures (PawP) as previously described {Bizargity, #22}. ATP levels were measured from transplanted lung bronchoalveolar lavage fluid (BAL) by bioluminescent detection using Enliten ATP assay system (FF2000, Promega Corporation, Madison, Wis.). […] Immunohistochemistry was performed on frozen lung tissue sections utilizing CD4 and CD8 antibodies and isotype controls and assessed based on the average of 10 high power fields/lung allograft. […]
To assess the inhibitory actions of oATP upon CD8 cells, a CD8 specific response was analyzed by utilizing OT1 splenocytes stimulated with OVA peptide. […]

[6] = Phosphorylation of T-cell signaling molecules in activated CD4+ T cells (Luminex/Milliplex, Western blot); type: cell-based, mouse
Description: (§1) 60 minutes after anti-CD3-Ig and anti-CD28-Ig mediated activation, cells were lysed and the phosphorylation status of CREB, Erk, Akt, JNK, p38, p70 S6 Kinase, STAT3, and STAT5A/B was assessed using the Millipore Milliplex Cell Signaling Assay. […] Data were confirmed by western blot (FIG. 6D).
(§2) Several key components of T-cell receptor signaling involved in the alloimmune response were examined, and the phosphorylation kinetics following in vitro anti-CD3-Ig/anti-CD28-Ig-mediated CD4+ T-cell activation was evaluated by using the Luminex assay. […] The inventors first confirmed that Colivelin (Col) was able to restore the activation-induced phosphorylation of STAT3 in a dose-dependent manner in oATP-treated CD4+ T cells by Western blotting. […] The effect of oATP and Colivelin on STAT3 phosphorylation and T-cell function was also evaluated following cardiac transplantation.

[7] = tested on: STAT3; test: as above; type: cell-based, mouse; details: 60 minutes after activation
Description: as §1, §2

[8] = tested on: C57BL/6 splenocytes; test: In vitro alloimmune ELISPOT, C57BL/6 responder splenocytes vs irradiated BALB/c splenocytes; type: cell-based, mouse
Source text: The effect of increasing doses of oATP on Th1/Th17 cytokine levels was next tested. A dose-dependent response was evident, in which oATP reduced the number of cells producing Th1 cytokines (IFN-γ and IL-2) and Th17 cytokines (IL-6 and IL-17). Because it has been reported that oATP may affect other P2XRs, the inventors made use of the availability of the selective P2X1R inhibitor NF 449 and of the selective P2X3R inhibitor NF 110. C57BL/6 splenocytes were stimulated with irradiated BALB/c splenocytes, and IFN-γ production was evaluated in the presence of these inhibitors.

In the case of periodate-oxidized ATP [oATP], the “expression of TNF-α, IFN-γ and granzyme B” value [1] is reported as “reduction; also recorded: impaired activation”, the “lung function (PawP, compliance) after rescue therapy” value ([2]; oATP started at day 10) is reported as “Better functional preservation of lung compliance” and the “radiological and histological analysis after rescue therapy” value ([2]; oATP started at day 10, followed for 30 days) is reported as “reversal of graft rejection and no signs of fibrosis; also recorded: preservation of alveolar space”. For the same substance, the “graft fibrosis, inflammation and alveolar spaces” value ([2]; treatment from transplantation) was “prevents graft fibrosis; also recorded: highly reduced inflammation and preserved alveolar spaces”, the “TCR-Tg T-cell apoptosis” value ([3]; 4 days following adoptive transfer) was “without substantial differences” and the “ABM CD4+ TCR-Tg T-cell proliferation (CFSE dilution)” value ([3]; mouse, in vivo) was “decrease”. The “numbers of Teffs and Th17 cells within the Tg population” value ([3]; mouse, in vivo) was “marked reduction”, the “numbers of ABM CD4+ TCR-Tg T cells” value ([3]; seven days posttransplantation) was “reduced numbers” and the “long-term cardiac transplant survival (>100 days), share of recipients” value [4] was 80%. The “allo-specific CD8 activation/proliferation” value [5] was “dramatic reduction; also recorded: significant reduction”, the “phosphorylation of JNK/SAPK1, p70/S6, or STAT5” value [6] was “unaffected” and the “activation-induced STAT3 phosphorylation” value [7] was “reduced level; also recorded: prevented phosphorylation of STAT3; also recorded: significant inhibition”. For the same substance, the IL-4 production ([8]; increasing concentrations of oATP) was “dose-dependent increase” and the “number of cells producing Th1 (IFN-γ, IL-2) and Th17 (IL-6, IL-17) cytokines” value ([8]; increasing doses, dose-dependent) was “reduced”.

From US11452781B2, “Method of preventing and treating type 1 diabetes, allograft rejection and lung fibrosis (by targeting the ATP/P2X7R axis)” (CHILDREN'S MEDICAL CENTER CORPORATION, priority 2013, dated 2022)
